According to PubChem BioAssay AID2060487 (Molecular Pharmacology Branch, DTP, NCI, 2025):
Values joined by “and” are separate entries in the source; they are usually repeats but may differ in a detail not shown here. Equal entries are not always repeated. Values belong to the compound of their own block, whether it stands above or below them.

System: 997537-175-T-J1-PDC complex spheroid viability
Experiment: Anticancer human tumor 997537-175-T-J1-PDC patient-derived colon adenocarcinoma cell line growth inhibition [GQUAD]
Details: for viability, T/C: stronger effect = lower value
Excerpt: DNA G-quadruplex Stabilizer Agents in Combinations in Complex Spheroids
A high-throughput screen of multi-cell type tumor spheroids was designed to identify active combinations of DNA G-quadruplex stabilizer agents and targeted small molecules. Complex spheroids include a stromal component modeled by human endothelial cells (HUVEC) and fibroblasts modeled by human mesenchymal stem cells (MSCs). The concentration ranges selected for each drug and investigational agent were based upon clinically achievable concentrations if the clinical Cmax of the agent was known.
Compounds. The drugs and investigational agents: pidnarulex (CX-5461; NSC782164), APTO-253 (NSC789042), BRACO-19 (NSC847499), peposertib (NSC802822), ceralasertib (NSC780249), elimusertib (NSC800525), camonsertib (NSC841442), AZD-1390 (NSC803789), olaparib (NSC753686), talazoparib (NSC767125), ART-558 (NSC835418), sotorasib (NSC818433), MRTX-1133 (NSC836407), SN-38 (NSC673596), topotecan (NSC609699), etoposide (NSC141540), doxorubicin (NSC123127), gemcitabine (NSC613327), 5-fluorouracil (NSC19893), paclitaxel (NSC125973), vemurafenib (NSC761431), panobinostat (NSC761190), R-306465 (JNJ-16241199; NSC773264), adavosertib (NSC754352), TP-3654 (NSC805149), carboplatin (NSC241240), KSQ-4279 (NSC840948), and staurosporine (NSC755774) were obtained from the National Cancer Institute (NCI) Developmental Therapeutics Program Chemical Repository (34). The FDA-approved anticancer drug set is available from the NCI Developmental Therapeutics Program. […] The stock solutions were prepared in dimethyl sulfoxide (DMSO, Sigma-Aldrich, St. Louis, MO, cat. D2650) at 800-fold the tested concentration and stored at -70 degrees C prior to their use. All drugs and investigational agents were tested over a range starting from a high concentration at or near the clinical Cmax and decreasing in half-log increments. If the clinical Cmax for an agent had not been determined, the highest concentration tested was 10 microM.
2.3 Cell Culture. All cells were maintained in an incubator at 37 degrees C and 5% CO2 with 95% humidity. The PDC lines were cultured according to standard operating procedures established by the NCI PDMR. All PDCs were thawed and cultured in Matrigel-coated flasks prepared with a working solution of 1X Ham's F-12 nutrient mix, without supplementation (Invitrogen, cat. 11765054), 100 U/mL penicillin-streptomycin (Invitrogen, cat. 15140122), and 2.5% Matrigel (Corning Inc., cat. 354248) for the first three passages. The 857933-349-R-J2-PDC line was cultured in 6C/Colon 1B media, which includes advanced DMEM/F-12 (Thermo Fisher Scientific, cat. 12634028), 10 mM HEPES (Thermo Fisher Scientific, cat. 15630080), 1X GlutaMAX supplement (Thermo Fisher Scientific, cat. 35050061), 0.1 mg/mL primocin (InvivoGen, cat. ant-pm-2), 10% defined fetal bovine serum, heat inactivated (HyClone Laboratories Inc., cat. SH30070.03HI), 50% L-WRN conditioned media (ATCC, cat. CRL-3276), 1.25 mM N-Acetyl-L-cysteine (Sigma-Aldrich, cat. A9165), 10 mM nicotinamide (Sigma-Aldrich, cat. N0636), 1X B-27 supplement (Thermo Fisher Scientific, cat. 17504044), 1X N-2 supplement (Thermo Fisher Scientific, cat. 17502048), 10 microM Y-27632 dihydrochloride (Tocris Bioscience, cat. 1254), and 50 ng/mL human EGF recombinant protein (Thermo Fisher Scientific, cat. PHG0311). The 485176-168-R4-J1-PDC line was cultured in Panc media, which includes all 6C/Colon 1B media components plus 100 ng/mL human FGF-10 (Thermo Fisher Scientific, cat. 100-26), 500 nM SB-431542 (Selleckchem, cat. S1067), and gastrin (Tocris, cat. 3006).
[…]
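Note: spheroids exposed to the agents for 7 days.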
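Throughout, for viability, T/C: 100% = DMSO vehicle control viability.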

SMILES: Cn1ncnc1[C@H]1c2n[nH]c(=O)c3cc(F)cc(c23)N[C@@H]1c1ccc(F)cc1 + CN(C)c1ccc(Nc2c3ccc(NC(=O)CCN4CCCC4)cc3nc3cc(NC(=O)CCN4CCCC4)ccc23)cc1
IC50 (curve of first compound, second compound 0.0316 µM): > 0.316 µM
IC50 (curve of first compound, second compound 0.1 µM): > 0.316 µM
IC50 (curve of first compound, second compound 0.316 µM): > 0.316 µM
IC50 (curve of first compound, second compound 1 µM): > 0.316 µM
IC50 (curve of first compound, second compound 3.16 µM): > 0.316 µM
IC50 (curve of first compound, second compound 10 µM): > 0.316 µM
viability, T/C (second compound 0.0316 µM, first compound 0.000999 µM): 103%
viability, T/C (second compound 0.0316 µM, first compound 0.00316 µM): 88.8%
viability, T/C (second compound 0.0316 µM, first compound 0.00999 µM): 106%
viability, T/C (second compound 0.0316 µM, first compound 0.0316 µM): 66.6%
viability, T/C (second compound 0.0316 µM, first compound 0.0999 µM): 81.1%
viability, T/C (second compound 0.0316 µM, first compound 0.316 µM): 68.1%
viability, T/C (second compound 0.1 µM, first compound 0.000999 µM): 100%
viability, T/C (second compound 0.1 µM, first compound 0.00316 µM): 97%
viability, T/C (second compound 0.1 µM, first compound 0.00999 µM): 91.9%
viability, T/C (second compound 0.1 µM, first compound 0.0316 µM): 63%
viability, T/C (second compound 0.1 µM, first compound 0.0999 µM): 102%
viability, T/C (second compound 0.1 µM, first compound 0.316 µM): 82.1%
viability, T/C (second compound 0.316 µM, first compound 0.000999 µM): 94.8%
viability, T/C (second compound 0.316 µM, first compound 0.00316 µM): 102%
viability, T/C (second compound 0.316 µM, first compound 0.00999 µM): 95.2%
viability, T/C (second compound 0.316 µM, first compound 0.0316 µM): 91.2%
viability, T/C (second compound 0.316 µM, first compound 0.0999 µM): 79.7%
viability, T/C (second compound 0.316 µM, first compound 0.316 µM): 86.8%
viability, T/C (second compound 1 µM, first compound 0.000999 µM): 84.7%
viability, T/C (second compound 1 µM, first compound 0.00316 µM): 70.5%
viability, T/C (second compound 1 µM, first compound 0.00999 µM): 79.2%
viability, T/C (second compound 1 µM, first compound 0.0316 µM): 86.5%
viability, T/C (second compound 1 µM, first compound 0.0999 µM): 98.5%
viability, T/C (second compound 1 µM, first compound 0.316 µM): 79.6%
viability, T/C (second compound 3.16 µM, first compound 0.000999 µM): 69.4%
viability, T/C (second compound 3.16 µM, first compound 0.00316 µM): 83.6%
viability, T/C (second compound 3.16 µM, first compound 0.00999 µM): 94.6%
viability, T/C (second compound 3.16 µM, first compound 0.0316 µM): 91.3%
viability, T/C (second compound 3.16 µM, first compound 0.0999 µM): 94.8%
viability, T/C (second compound 3.16 µM, first compound 0.316 µM): 85.9%
viability, T/C (second compound 10 µM, first compound 0.000999 µM): 77.1%
viability, T/C (second compound 10 µM, first compound 0.00316 µM): 87.5%
viability, T/C (second compound 10 µM, first compound 0.00999 µM): 91.2%
viability, T/C (second compound 10 µM, first compound 0.0316 µM): 78.6%
viability, T/C (second compound 10 µM, first compound 0.0999 µM): 109%
viability, T/C (second compound 10 µM, first compound 0.316 µM): 104%

SMILES: O=c1[nH]cc(F)c(=O)[nH]1
viability, T/C (compound 0.0316 µM): 108% and 85.2% and 99.8%
viability, T/C (compound 0.1 µM): 104% and 108% and 86.2%
viability, T/C (compound 0.316 µM): 96.1% and 89% and 98.1%
viability, T/C (compound 1 µM): 95.1% and 85.5% and 92.2%
viability, T/C (compound 3.16 µM): 101% and 70.3% and 82.5%
viability, T/C (compound 10 µM): 83.9% and 87.2% and 93.6%
IC50 (curve of compound): > 10 µM

SMILES: COc1ccc([C@@H](O)c2cc(-c3ncnc4cc(N5CCOCC5)ccc34)c(F)cc2Cl)nn1
viability, T/C (compound 0.0316 µM): 92.9% and 91.3% and 86%
viability, T/C (compound 0.1 µM): 90.2% and 89.7% and 104%
viability, T/C (compound 0.316 µM): 94.4% and 88.5% and 89.3%
viability, T/C (compound 1 µM): 101% and 83.3% and 91.5%
viability, T/C (compound 3.16 µM): 82.6% and 73.8% and 58.5%
viability, T/C (compound 10 µM): 65.1% and 78.9% and 67.7%
IC50 (curve of compound): > 10 µM

Further lines, with some results ahead:

IC50 (curve of compound): > 10 µM
SMILES: Nc1ccn(C2OC(CO)C(O)C2(F)F)c(=O)n1 (centres undefined)
viability, T/C (compound 0.0316 µM): 103% (2×) and 99.3%
viability, T/C (compound 0.1 µM): 92.3% and 96% and 108%
viability, T/C (compound 0.316 µM): 93.5% and 99.5% and 101%
viability, T/C (compound 1 µM): 91.9% and 64.2% and 92.5%
viability, T/C (compound 3.16 µM): 88.4% and 55.3% and 62%
viability, T/C (compound 10 µM): 85.4% and 64.9% and 84.9%

IC50 (curve of compound): > 10 µM and 7.16 µM and 5.5 µM
SMILES: COc1cccc2c1C(=O)c1c(O)c3c(c(O)c1C2=O)CC(O)(C(=O)CO)CC3OC1CC(N)C(O)C(C)O1 (centres undefined)
viability, T/C (compound 0.0316 µM): 98.9% and 107% and 104%
viability, T/C (compound 0.1 µM): 95.5% and 101% and 75.2%
viability, T/C (compound 0.316 µM): 92.8% and 91.6% and 89.9%
viability, T/C (compound 1 µM): 99.9% and 88.3% and 107%
viability, T/C (compound 3.16 µM): 76.1% and 72.2% and 74.3%
viability, T/C (compound 10 µM): 51.4% and 40.7% and 23.7%

IC50 (curve of compound): > 10 µM
SMILES: COc1cc(C2c3cc4c(cc3C(OC3OC5COC(C)OC5C(O)C3O)C3COC(=O)C23)OCO4)cc(OC)c1O (centres undefined)
viability, T/C (compound 0.0316 µM): 109% and 95.5% and 112%
viability, T/C (compound 0.1 µM): 89.4% and 75.1% and 76.9%
viability, T/C (compound 0.316 µM): 77.2% and 92.8% and 91.9%
viability, T/C (compound 1 µM): 93.1% and 76.8% and 89%
viability, T/C (compound 3.16 µM): 82.3% and 81.8% and 82.2%
viability, T/C (compound 10 µM): 60.9% and 54.7% and 74.6%

IC50 (curve of compound): > 10 µM
SMILES: C=CC(=O)N1CCN(c2nc(=O)n(-c3c(C)ccnc3C(C)C)c3nc(-c4c(O)cccc4F)c(F)cc23)C(C)C1 (centres undefined)
viability, T/C (compound 0.0316 µM): 72.9% and 96.6% and 86.9%
viability, T/C (compound 0.1 µM): 72.7% and 83.5% and 95.8%
viability, T/C (compound 0.316 µM): 86.5% and 87.9% and 93.8%
viability, T/C (compound 1 µM): 92.2% and 77.4% and 73%
viability, T/C (compound 3.16 µM): 95.7% and 79.1% and 71.7%
viability, T/C (compound 10 µM): 94.6% and 94.1% and 90%
